Measured values published in US8828469B2, “Use of alkamides for masking an unpleasant flavor” (Symrise AG, priority 2007, dated 2014).

Assay: Tests carried out by the Applicant on masking or reducing unpleasant flavor impressions
Conditions: for effect for masking or reducing the unpleasant flavor impression of an unpleasant-tasting substance: among the alkamides tested by the Applicant

| Compound | effect for masking or reducing the unpleasant flavor impression of an unpleasant-tasting substance | effect to change, mask or reduce the unpleasant flavor impression (very low concentrations which are not sufficient to intensify salivation) |
| --- | --- | --- |
| CCCCC/C=C\C=C/C(=O)NCC(C)C [Formula (3), 2Z,4Z-decadienoic acid-N-isobutylamide] | best effect | – |
| CCCCC/C=C\C=C\C(=O)NCC(C)C [Formula (2), 2E,4Z-decadienoic acid-N-isobutylamide] | best effect | – |
| CCCCC/C=C/C=C/C(=O)NCC(C)C [Formula (1), 2E,4E-decadienoic acid-N-isobutylamide] | best effect | very strong effect |
| CCCCC/C=C/C=C\C(=O)NCC(C)C [Formula (4), 2Z,4E-decadienoic acid-N-isobutylamide] | best effect | – |
